Measured values from ChEMBL document CHEMBL1153336, “Cytotoxicity of cardenolides and cardenolide glycosides from Asclepias curassavica” (Bioorg Med Chem Lett, 2009).

Columns and labels:
Raji = assay: Cytotoxicity against human Raji cells by MTT assay; format: functional, cell-based
HepG2 = assay: Cytotoxicity against human HepG2 cells by MTT assay; format: functional, cell-based

SMILES | IC50 (Raji) | IC50 (HepG2)
C[C@@H]1C[C@H](O)[C@]2(O)O[C@@H]3C[C@@]4(C=O)[C@@H](CC[C@@H]5[C@@H]4CC[C@]4(C)[C@@H](C6=CC(=O)OC6)CC[C@]54O)C[C@H]3O[C@@H]2O1 [CALOTROPIN] | 20 nM | 40 nM
CC(=O)O[C@H]1C[C@@H](C)O[C@H]2O[C@@H]3C[C@@H]4CC[C@@H]5[C@H](CC[C@]6(C)[C@@H](C7=CC(=O)OC7)CC[C@]56O)[C@@]4(C=O)C[C@H]3O[C@]21O [ASCLEPIN] | 20 nM | 20 nM
CC(=O)O[C@H]1C[C@@H](C)O[C@H]2O[C@@H]3C[C@@H]4CC[C@@H]5[C@H](CC[C@]6(C)[C@@H](C7=CC(=O)OC7)[C@H](O)C[C@]56O)[C@@]4(C=O)C[C@H]3O[C@]21O | 50 nM | 3030 nM
C[C@]12[C@H](O)C[C@H]3[C@@H](CC[C@H]4C[C@@H](O)CC[C@@]43CO)[C@@]1(O)CC[C@@H]2C1=CC(=O)OC1 | 14600 nM | 5170 nM
CC(=O)O[C@@H]1C[C@]2(O)[C@@H]3CC[C@H]4C[C@H]5O[C@@H]6O[C@H](C)C[C@H](O)[C@]6(O)O[C@@H]5C[C@]4(C=O)[C@H]3CC[C@]2(C)[C@H]1C1=CC(=O)OC1 | 3540 nM | 1340 nM
C[C@]12CC[C@H]3[C@@H](CC[C@H]4C[C@@H](O)[C@H](O)C[C@@]43C=O)[C@@]1(O)CC[C@@H]2C1=CC(=O)OC1 [CALOTROPAGENIN] | 24300 nM | 56600 nM
C[C@]12CC[C@H]3[C@@H](CC[C@H]4C[C@@H](O)CC[C@@]43CO)[C@@]1(O)CC[C@@H]2C1=CC(=O)OC1 [COROGLAUCIGENIN] | 140 nM | 6700 nM
COc1cc(/C=C/C(=O)OC[C@H]2O[C@@H](O[C@H]3CC[C@@]4(C)[C@@H](CC[C@@H]5[C@@H]4CC[C@]4(C)[C@@H](C6=CC(=O)OC6)CC[C@]54O)C3)[C@H](O)[C@@H](O)[C@@H]2O)ccc1O | 41100 nM | > 100000 nM
CO[C@]12CC[C@@]3(CO1)[C@@H](CC[C@@H]1[C@@H]3C[C@@H](O)[C@]3(C)[C@@H](C4=CC(=O)OC4)CC[C@]13O)C2 | 64700 nM | 89900 nM
C[C@@H]1CC(=O)[C@]2(O)O[C@@H]3C[C@@]4(C=O)[C@@H](CC[C@@H]5[C@@H]4CC[C@]4(C)[C@@H](C6=CC(=O)OC6)CC[C@]54O)C[C@H]3O[C@@H]2O1 [USCHARIDIN] | 20 nM | 380 nM
C[C@@H]1C[C@H](O)[C@]2(O)O[C@@H]3C[C@@]4(C=O)[C@@H](CC[C@@H]5[C@@H]4C[C@@H](O)[C@]4(C)[C@@H](C6=CC(=O)OC6)CC[C@]54O)C[C@H]3O[C@@H]2O1 | 1460 nM | 690 nM
CC(=O)O[C@H]1C[C@@H](C)O[C@H]2O[C@@H]3C[C@@H]4CC[C@@H]5[C@H](CC[C@]6(C)[C@@H](C7=CC(=O)OC7)[C@H](OC(C)=O)C[C@]56O)[C@@]4(C=O)C[C@H]3O[C@]21O | 3210 nM | 760 nM
C[C@]12CC[C@H](O[C@@H]3O[C@H](CO)[C@@H](O)[C@H](O)[C@H]3O)C[C@@H]1CC[C@@H]1[C@@H]2CC[C@]2(C)[C@@H](C3=CC(=O)OC3)CC[C@]12O [DESGLUCOUZARIN] | 750 nM | 8530 nM
